According to patent publication US10772840B2 (Charleston Laboratories, Inc., priority 2016, dated 2020):
Counter-ions that a name gives are not always drawn.

Assay: Dissolution measurement by USP Apparatus 2 (Paddle Apparatus), HPLC analysis
Assay type: physicochemical
Settings: for Dissolution, API released: 500 ml 0.1 N HCl pH 1.1, 37.0° C.; for Dissolution (% release), Max. / Dissolution (% release), Mean / Dissolution (% release), Min.: 500 ml 0.1 N HCl pH 1.1, N=6
Procedure: Dissolution studies were conducted to measure the rates of dissolution of active ingredients using a USP Apparatus 2 (Paddle Apparatus) with a dissolution fluid of 500 ml deaerated 0.1 N HCl (i.e., pH 1.1) at 37.0+/−0.5° C. Dissolution samples were analyzed by HPLC.
Dissolution medium of 0.1N HCl was prepared by mixing approximately 85 ml of concentrated (12N) Hydrochloric Acid with 10 L of water. Stock promethazine HCl standard solution was prepared by adding approximately 30 ml of dissolution medium to 25.0 mg of dried Promethazine Hydrochloride USP reference standard in a 50 ml volumetric flash, diluted to volume with dissolution media, and mixed well. […] The resulting solution is diluted to volume with dissolution medium and mixed well.
The dissolution apparatus used is USP Apparatus 2 (Paddle Apparatus) with a speed of 50 rpm at 37.0° C.±0.5° C. Dissolution medium (500 ml) was Helium sparged for at least 10 minutes. N=6 samples were tested. Sample time point of 5, 10, 15, 20, 30, 45, 60, and 90 minutes (final time point at 250 rpm). Filters: QLA 10 μm in-line full flow porous filter or equivalent; chromafil 1.0 μm on-line glass fiber membrane filter or equivalent.
The dissolution apparatus was assembled and the paddle was positioned so that the distance between its lower edge and the lower inner surface of the vessel is within 25 mm±2 mm throughout the test. This step was repeated for each of the six vessels. The speed (50 rpm) and the temperature (37.0° C.±0.5° C.) were set. 500 mL of 0.1N HCl solution were placed into each of the six vessels, previously degassed via helium purge, degassed using degasser or other suitable means. The Dissolution medium was equilibrated to set temperature and the temperature of the dissolution medium was checked with a thermometer or thermocouple before starting the dissolution. Each of the six (6) capsules were accurately weighed and the weight was recorded. The dissolution test was started. Each capsule was dropped with sinker into vessels noting the station assigned to each recorded capsule weight. The shaft was rotated at 50 rpm. Samples were withdrawn by dissolution auttosampler at 5, 10, 15, 20, 30, 45, 60, and 90 minutes into HPLC vials, or were withdraw manually. Filters (QLA 10 μm in-line full flow porous filter or equivalent; chromafil 1.0 μm on-line glass fiber membrane filter or equivalent) were utilized, discarding at least the first 5 mL of the filtrate, and clear filtrate was transfered into HPLC vials. After withdrawing samples at the 60 minute time point, the paddle rotation speed was increased to 250 rpm until the next time point of 90 minutes.
HPLC conditions: Flow rate: 1.0 ml/min; Injection Volume: 10 μL; Column Temperature: 40° C.±2° C.; Wavelengths: 240 nm; Run Time: 7 minutes; Mobile Phase A was 0.2% TFA in Water, which was prepared by mixing well 2.0 ml of trifluoroacetic acid with 1 L of water. Mobile Phase B: 0.2% TFA in Acetonitrile, which was prepared by mixing well 2.0 ml of trifluoroacetic acid to 1 L of acetonitrile; and Gradient used was as follows in Table 8.
If a Water® dissolution autosampler was utilized, then the Empower Dissolution Software was used to calculate the profile. Calculation are performed using a validated excel spreadsheet. When the sample was performed manually, the volume correction was considered for the calculation.

[1] = in a capsule, after 1 month store at 40° C., 5 min, 50 rpm
[2] = in a capsule, after 1 month store at 40° C., 10 min, 50 rpm
[3] = in a capsule, after 1 month store at 40° C., 15 min, 50 rpm
[4] = in a capsule, after 1 month store at 40° C., 20 min, 50 rpm
[5] = in a capsule, after 1 month store at 40° C., 30 min, 50 rpm
[6] = in a capsule, after 1 month store at 40° C., 45 min, 50 rpm
[7] = in a capsule, after 1 month store at 40° C., 60 min, 50 rpm
[8] = in a capsule, after 1 month store at 40° C., 90 min (250 rpm after 60 min)
[9] = in a capsule, large batch, 5 min, 50 rpm
[10] = in a capsule, large batch, 10 min, 50 rpm
[11] = in a capsule, large batch, 15 min, 50 rpm
[12] = in a capsule, large batch, 20 min, 50 rpm
[13] = in a capsule, large batch, 30 min, 50 rpm
[14] = in a capsule, large batch, 45 min, 50 rpm
[15] = in a capsule, large batch, 60 min, 50 rpm
[16] = in a capsule, large batch, 90 min (250 rpm after 60 min)

Dissolution, API released (content of capsule without shells, 5 min, 50 rpm): 85% | Dissolution, API released (content of capsule without shells, 10 min, 50 rpm): 90% | Dissolution, API released (content of capsule without shells, 15 min, 50 rpm): 92% | Dissolution, API released (content of capsule without shells, 20 min, 50 rpm): 94% | Dissolution, API released (content of capsule without shells, 30 min, 50 rpm): 94% | Dissolution, API released (content of capsule without shells, 45 min, 50 rpm): 95% | Dissolution, API released (content of capsule without shells, 60 min, 50 rpm): 96% | Dissolution, API released (content of capsule without shells, 90 min (250 rpm after 60 min)): 100% | Dissolution (% release), Max. [1]: 56 | Dissolution (% release), Mean [1]: 43 | Dissolution (% release), Min. [1]: 35 | Dissolution (% release), Max. [2]: 77 | Dissolution (% release), Mean [2]: 64 | Dissolution (% release), Min. [2]: 54 | Dissolution (% release), Max. [3]: 83 | Dissolution (% release), Mean [3]: 73 | Dissolution (% release), Min. [3]: 63 | Dissolution (% release), Max. [4]: 88 | Dissolution (% release), Mean [4]: 79 | Dissolution (% release), Min. [4]: 68 | Dissolution (% release), Max. [5]: 92 | Dissolution (% release), Mean [5]: 84 | Dissolution (% release), Min. [5]: 74 | Dissolution (% release), Max. [6]: 96 | Dissolution (% release), Mean [6]: 89 | Dissolution (% release), Min. [6]: 80 | Dissolution (% release), Max. [7]: 98 | Dissolution (% release), Mean [7]: 92 | Dissolution (% release), Min. [7]: 84 | Dissolution (% release), Max. [8]: 103 | Dissolution (% release), Mean [8]: 102 | Dissolution (% release), Min. [8]: 99 | Dissolution (% release), Max. [9]: 63 | Dissolution (% release), Mean [9]: 47 | Dissolution (% release), Min. [9]: 32 | Dissolution (% release), Max. [10]: 87 | Dissolution (% release), Mean [10]: 69 | Dissolution (% release), Min. [10]: 53 | Dissolution (% release), Max. [11]: 92 | Dissolution (% release), Mean [11]: 78 | Dissolution (% release), Min. [11]: 63 | Dissolution (% release), Max. [12]: 95 | Dissolution (% release), Mean [12]: 82 | Dissolution (% release), Min. [12]: 71 | Dissolution (% release), Max. [13]: 97 | Dissolution (% release), Mean [13]: 87 | Dissolution (% release), Min. [13]: 79 | Dissolution (% release), Max. [14]: 99 | Dissolution (% release), Mean [14]: 92 | Dissolution (% release), Min. [14]: 85 | Dissolution (% release), Max. [15]: 101 | Dissolution (% release), Mean [15]: 94 | Dissolution (% release), Min. [15]: 88 | Dissolution (% release), Max. [16]: 105 | Dissolution (% release), Mean [16]: 102 | Dissolution (% release), Min. [16]: 101 | Dissolution, API released (in a capsule, small batch, 5 min, 50 rpm): 55% | Dissolution, API released (in a capsule, small batch, 10 min, 50 rpm): 78% | Dissolution, API released (in a capsule, small batch, 15 min, 50 rpm): 85% | Dissolution, API released (in a capsule, small batch, 20 min, 50 rpm): 88% | Dissolution, API released (in a capsule, small batch, 30 min, 50 rpm): 92% | Dissolution, API released (in a capsule, small batch, 45 min, 50 rpm): 95% | Dissolution, API released (in a capsule, small batch, 60 min, 50 rpm): 97% | Dissolution, API released (in a capsule, small batch, 90 min (250 rpm after 60 min)): 102% | Dissolution, API released (promethazine and sumatriptan pellets, 5 min, 50 rpm): 95% | Dissolution, API released (promethazine and sumatriptan pellets, 15 min, 50 rpm): 102% | Dissolution, API released (promethazine and sumatriptan pellets, 20 min, 50 rpm): 102% | Dissolution, API released (promethazine and sumatriptan pellets, 30 min, 50 rpm): 102% | Dissolution, API released (promethazine and sumatriptan pellets, 45 min, 50 rpm): 102% | Dissolution, API released (promethazine and sumatriptan pellets, 60 min, 50 rpm): 102% | Dissolution, API released (promethazine and sumatriptan pellets, 90 min (250 rpm after 60 min)): 102%
Structure (SMILES): CC(CN1c2ccccc2Sc2ccccc21)N(C)C (centres unmarked) [Promethazine, Promethazine Hydrochloride]
